We go through seven compounds from PMC6268061, “Investigation of the Biological Properties of (Hetero)Aromatic Thiosemicarbazones” (Molecules, 2012).

One may read the MIC as the lowest concentration that inhibits growth of the organism. What is called IC50 is the point on the concentration scale where inhibition reaches its midpoint.

Read-outs that look alike come from different tables or passages of the source.

A short description of data set [1]: Lipophilicity determination using RP-HPLC (capacity factor, log k). In kind it is physicochemical. Particulars: C18, MeOH 55%/H2O 45%. The text has this:
Reversed phase high performance liquid chromatography (RP-HPLC) methods have become popular and are widely used for lipophilicity measurements. The general procedure is the measurement of the directly accessible retention time under isocratic conditions using varying amounts of methanol as an organic modifier in the mobile phase using RP columns and calculating the logarithm of the capacity factors (log k). Log k is the logarithm of the capacity factors in chromatographic approaches that is related to the partitioning of a compound between a mobile and a (pseudo-)stationary phase. Log k is used as the lipophilicity index converted to log P scale.
A Waters Alliance 2695 XE HPLC separation module and a Waters Photodiode Array Detector 2996 (Waters Corp., Milford, MA, USA) were used. A Symmetry® C18 5 μm, 4.6 × 250 mm, Part No. WAT054275 (Waters Corp.) chromatographic column was used. The HPLC separation process was monitored using Empower™ 2 Chromatography Data Software, Waters 2009 (Waters Corp.). A mixture of MeOH p.a. (55%) and H2O-HPLC-Mili-Q Grade (45%) was used as a mobile phase. The total flow of the column was 0.9 mL/min, injection volume 30 μL, column temperature 30 °C and sample temperature 10 °C. A detection wavelength of 210 nm was chosen. A KI methanolic solution was used for the determination of dead time (tD). Retention times (tR) were measured in minutes. The capacity factors k were calculated using the Empower™ 2 Chromatography Data Software according to the formula k = (tR − tD)/tD, where tR is the retention time of the solute, whereas tD denotes the dead time obtained using an unretained analyte. Log k, calculated from the capacity factor k, is used as the lipophilicity index converted to log P scale.

Data set [2] concerns Candida albicans ATCC 44859. Description: In vitro antifungal susceptibility, broth microdilution. In kind it is cell-based. Particulars: ATCC44859, 24 h and 48 h, only one value presented (inactive), read-out: MIC (IC80) CA. On the technique in general: Dilution methods test growth across graded concentrations, often in twofold steps.
Another data set concerns Candida tropicalis 156. The description is as above. In kind it is cell-based. The note with it: Candida tropicalis, 156; 24 h and 48 h, only one value presented (inactive); read-out: MIC (IC80) CT.
The next data set relates to Candida krusei ATCC 6258. The data set is described as above. In kind it is cell-based. The note with it: Pichia kudriavzevii, ATCC6258; 24 h and 48 h, only one value presented (inactive); read-out: MIC (IC80) CK.
A further data set deals with Candida glabrata 20/I. The data set is described as above. Particulars: Nakaseomyces glabratus, 24 h and 48 h, only one value presented (inactive), read-out: MIC (IC80) CG. In kind it is cell-based.
The test system of data set [3] is Trichosporon beigelii 1188. Described as above. In kind it is cell-based. The note with it: Trichosporon beigelii, 1188; 24 h and 48 h, only one value presented (inactive); read-out: MIC (IC80) TB. From the text: The broth microdilution test was used for the assessment of the in vitro antifungal activity of the synthesized compounds against Candida albicans ATCC 44859 (CA), Candida tropicalis 156 (CT), Candida krusei ATCC 6258 (CK), Candida glabrata 20/I (CG), Trichosporon beigelii 1188 (TB), Aspergillus fumigatus 231 (AF), Absidia corymbifera 272 (AC), and Trichophyton mentagrophytes 445 (TM). Fluconazole (FLU) was used as the standard since it is a clinically used antimycotic drug. The procedure was performed using a twofold dilution of the compounds in RPMI 1640 (Sevapharma a.s., Prague, Czech Republic) buffered to pH 7.0 with […] of 3-morpholino-propane-1-sulfonic acid (MOPS, Sigma, Prague, Czech Republic). The final concentrations of the compounds ranged from 500 to 0.975 μmol/L. Drug-free controls were included. The determination of minimum inhibitory concentration (MIC) was performed according to the Clinical and Laboratory Standards Institute (CLSI, formerly NCCLS) reference protocol M27-A2 for yeasts (IC80 value) and M38-A for moulds (IC50 value). IC80 and IC50 were defined as an 80% resp. 50% or greater reduction in growth in comparison with the control. The values of MICs were determined after 24 and 48 h of static incubation at 35 °C. The final MICs for T. mentagrophytes, were determined after 72 and 120 h of incubation.

Data set [4] deals with Aspergillus fumigatus 231. Described as above. In kind it is cell-based. Particulars: Aspergillus fumigatus, 231; 24 h and 48 h, only one value presented (inactive); read-out: MIC (IC50) AF.
The next data set deals with Absidia corymbifera 272. The data set is described as above. In kind it is cell-based. The note with it: Lichtheimia corymbifera, 272; 24 h and 48 h, only one value presented (inactive); read-out: MIC (IC50) AC.
Data set [5] has as its system Trichophyton mentagrophytes 445. The description is as above. In kind it is cell-based. Particulars: Trichophyton mentagrophytes, 445; 72 h and 120 h, only one value presented (inactive); read-out: MIC (IC50) TM.
Data set [6] has as its system HCT-116 human colon cancer cells (p53 wild type). Details: method as in PMID 22858101. The note with it: footnote 3: anticancer activity described elsewhere ref [34],[44]; cited from earlier work.
Data set [7] concerns photosynthetic electron transport (PET) in spinach chloroplasts. Description: Inhibition of photosynthetic electron transport (PET) in spinach chloroplasts. In kind it is biochemical, Spinacia oleracea L. The note with it: DCPIP photoreduction. On the procedure: Chloroplasts were prepared from spinach (Spinacia oleracea L.) according to Masarovicova and Kralova. The inhibition of the photosynthetic electron transport (PET) in spinach chloroplasts was determined spectrophotometrically (Genesys 6, Thermo Fisher Scientific, Waltham, MA, USA) using an artificial electron acceptor 2,6-dichlorophenol-indophenol (DCIPP) according to Kralova et al. and the rate of photosynthetic electron transport was monitored as a photoreduction of DCPIP. The measurements were carried out in a phosphate buffer (0.02 mol/L, pH 7.2) containing sucrose (0.4 mol/L), MgCl2 (0.005 mol/L) and NaCl (0.015 mol/L). The chlorophyll content was 30 mg/L in these experiments and the samples were irradiated (~100 W/m^2 with 10 cm distance) with a halogen lamp (250 W) using a 4 cm water filter to prevent warming of the samples (suspension temperature 22 °C). The compounds studied were dissolved in DMSO due to their limited water solubility. […] The inhibitory efficiency of the compounds studied was expressed by IC50 values, i.e., by the molar concentration of the compounds that caused a 50% decrease in the oxygen evolution rate relative to the untreated control.

Data set [8] deals with HCT-116 human colon cancer cells (p53 wild type). Description: In vitro antiproliferative activity, MTS assay. In kind it is cell-based. The note with it: HCT-116, 72 h incubation, MTS, read-out: HCT-116 IC50. On the procedure:
The antiproliferative activity of all of the compounds was examined against the human colon cancer (HCT-116) cell line using an MTS assay. The HCT-116 p53 wild type cell line was chosen on the basis of our former experience and some results on the activity of quinoline-based thiosemicarbazones that was published recently. Namely, compounds 4a–l have been tested previously for their wide-ranging anticancer activity. The antiproliferative activity of the compounds evaluated was assessed using Doxorubicin as a reference compound. In general, quinoline-based thiosemicarbazones 4 seem to have a much better anticancer activity than halogenophenyl compounds 3. Thus, the quinoline nucleus can be defined as being crucial for antiproliferative activity. A more detailed analysis of the anticancer activity of quinoline-based thiosemicarbazone is available. […] Nevertheless, some more general conclusions can be drawn from the gathered data. […] The free amino group or substitution pattern with small substituents such as methyl or ethyl are favorable for activity. According to our former results the chelating ability of the compounds may be one of the prerequisites of the antiproliferative activity. In this study we have measured the UV-VIS spectra of the compounds in presence of various concentration of Fe^3+ cations to observe its chelating potency (supplementary material). […] However as 4j give also two points at 330 and 385 nm, iron chelating ability should be regarded only as one of the factor influencing the biological activity.
The human colon cancer cell line HCT116 with the wild type p53 gene (p53^+/+) were obtained from Maria Sklodowska-Curie Memorial Cancer Center in Gliwice, Poland. Briefly, the cells were seeded in 96-well plates (3 × 10^3 cells/well) in cellular proliferation assays 24 h before the addition of the chelators. The assay was performed following a 72 h incubation with varying concentrations of the agents. Each compound was tested in triplicate in a single experiment with each experiment being repeated 3 times. After 72 h incubation with the compounds being investigated, 20 µL of MTS solution was added to each well (100 µL) and incubated for 1 h at 37 °C. The optical densities of the samples were analyzed at 490 nm. Results were expressed as a percentage of the control. The inhibitory concentration (IC50) was defined as the compound concentration necessary to reduce the absorbance to 50% of the untreated control.
Background: Formazan colour is commonly taken as a measure of viable cells.

On to `NC(=S)N/N=C/c1cccc(Cl)c1Cl` [Compound 3a, (E)-2-(2,3-Dichlorobenzylidene)hydrazinecarbothioamide], for which the log k in [1] was determined as 0.6892. The MIC (in data set [2]; in the data set with Candida tropicalis 156; in the data set on Candida krusei ATCC 6258; with Candida glabrata 20/I; in [3]) was over 125 µM each time. Besides, the IC50 in [4] was over 125 µM; in the data set on Absidia corymbifera 272, over 125 µM; in data set [5], over 125 µM; in [6], 41.5 ± 1.7 µM.
With `CNC(=S)N/N=C/c1cccc(Cl)c1Cl` [Compound 3b, (E)-2-(2,3-Dichlorobenzylidene)-N-methylhydrazinecarbothioamide], in data set [1], the log k stood at 0.7357. For the same compound, the IC50 in data set [7] was 170 µM; in data set [4], over 500 µM; in the data set with Absidia corymbifera 272 it was over 500 µM; in data set [5] it was over 500 µM; in [8], over 60 µM. The MIC (in [2]; in the data set on Candida tropicalis 156; in the data set on Candida krusei ATCC 6258; in the data set on Candida glabrata 20/I; in data set [3]) was over 500 µM in each case.
For `S=C(N/N=C/c1cccc(Cl)c1Cl)Nc1ccccc1` [Compound 3e, (E)-2-(2,3-dichlorobenzylidene)-N-phenylhydrazinecarbothioamide], the log k in data set [1] is recorded as 0.9230. Besides, the IC50 was 499 µM in data set [7]; over 125 µM in data set [4]; over 125 µM in the data set with Absidia corymbifera 272; over 125 µM in data set [5]; over 60 µM in data set [8]. Further, the MIC (in data set [2]; in the data set on Candida tropicalis 156; with Candida krusei ATCC 6258; with Candida glabrata 20/I; in data set [3]) was over 125 µM throughout.
As for `NC(=S)N/N=C/c1ccc(Cl)c(Cl)c1` [Compound 3f, (E)-2-(3,4-Dichlorobenzylidene)hydrazinecarbothioamide], the log k in [1] is 0.6974. Also, the IC50 in data set [7] is 283 µM; in data set [4], over 500 µM; in the data set on Absidia corymbifera 272, over 500 µM; in data set [5], over 500 µM; in data set [8] it was 46 ± 0.9 µM. Further, the MIC (in data set [2]; in the data set with Candida tropicalis 156; in the data set on Candida krusei ATCC 6258; with Candida glabrata 20/I; in [3]) was over 500 µM in each case.
`CNC(=S)N/N=C/c1ccc(Cl)c(Cl)c1` [Compound 3g, (E)-2-(3,4-Dichlorobenzylidene)-N-methylhydrazinecarbothioamide] displayed a log k in data set [1] of 0.7563. Besides, the IC50 was 136 µM in [7]; over 125 µM in data set [4]; over 125 µM with Absidia corymbifera 272; over 125 µM in data set [5]; 55.5 ± 6.2 µM in [8]. For the same compound, the MIC (in data set [2]; in the data set on Candida tropicalis 156; in the data set on Candida krusei ATCC 6258; with Candida glabrata 20/I; in [3]) was over 125 µM throughout.
Consider `CCNC(=S)N/N=C/c1ccc(Cl)c(Cl)c1` [Compound 3i, (E)-2-(3,4-Dichlorobenzylidene)-N-ethylhydrazinecarbothioamide], for which, in [1], the log k worked out at 0.8415. For the same compound, the IC50 in data set [7] is 280 µM; in [4], over 500 µM; with Absidia corymbifera 272, over 500 µM; in data set [5], over 500 µM; in data set [8], 48.5 ± 2.8 µM. The MIC (in data set [2]; in the data set on Candida tropicalis 156; with Candida krusei ATCC 6258; in the data set on Candida glabrata 20/I; in data set [3]) was over 500 µM throughout.
Compound `S=C(N/N=C/c1ccc(Cl)c(Cl)c1)Nc1ccccc1` [Compound 3j, (E)-2-(3,4-Dichlorobenzylidene)-N-phenylhydrazinecarbothioamide] yielded a log k in data set [1] of 0.9774. Further, the IC50 was 426 µM in data set [7]; over 125 µM in [4]; over 125 µM in the data set on Absidia corymbifera 272; over 125 µM in data set [5]; over 60 µM in [8]. The MIC (in data set [2]; in the data set on Candida tropicalis 156; in the data set on Candida krusei ATCC 6258; in the data set on Candida glabrata 20/I; in [3]) was over 125 µM in each case.
